The test system of one data set is NIH/3T3 cells. The experiment in a line: 14.1T T1-weighted MR imaging and T1 analysis of labeled cell pellets. Type of data set: cell-based. Conditions: 24 hours, about 10^6 cells. On the procedure:
(§1) 14.1T MR imaging and T1 measurements were performed on a General Electric/Bruker Omega 600WB 14.1T imaging spectrometer fitted with accustar shielded gradient coils at 25° C. For solution phantoms, 50 […], of 60, 40 and 20 μM Gd(III) (DOTA-Gd(III) and Gd(III)-AuNP) in complete cell media were added to flame-sealed 5¾″ Pasteur pipettes and centrifuged at 4.0° C. and 100×g for 5.0 minutes. Capillaries were then placed in a custom-made glass capillary holder and imaged in a 20 mm birdcage coil. For cell phantoms, approximately 1.5×10^6 NIH/3T3 cells were incubated with 20 or 5.0 μM ([Gd(III)]) Gd(III)-AuNP or DOTA-Gd(III) for 24 hours, rinsed two times with DPBS, and harvested with trypsin. After addition of complete media (1.0 mL total volume) cells were added to flame-sealed 5¾″ Pasteur pipettes and centrifuged at 4.0° C. and 100×g for 5.0 minutes. Capillaries were then placed in a custom-made glass capillary holder and imaged in a 10 mm birdcage coil. Spin lattice relaxation times (T1) were measured using a saturation recovery pulse sequence with static TE (10.18 ms) and variable TR (350, 500, 750, 1000, 1500, 2500, 4000, 7500, 15000 ms) values. […]

The conditions of data set [1]: data taken from Merbach et al., 37° C., cited from earlier work.
Data set [2] in a line: T1-weighted MR imaging and T1 analysis of solution phantoms (3T and 14.1T). Type of data set: physicochemical. On the procedure:
as §1

In the next data set the test system is NIH/3T3 and HeLa cells. The experiment in a line: Cell counting and percent cell viability (Guava ViaCount flow cytometry). Type of data set: cell-based. Conditions: any of the conditions tested. On the procedure: Cell Counting and Percent Cell Viability Determination Using a Guava EasyCyte Mini Personal Cell Analyzer (PCA) Flow Cytometry System. Cells were counted and percent cell viability determined via a Guava EasyCyte mini personal cell analyzer (Guava Technologies, Hayward, Calif., USA). Specifically, after cell harvesting an aliquot (10 or 20 μL) of the cell suspensions were mixed with Guava ViaCount reagent (final sample volume of 200 μL) and allowed to stain at room temperature for at least 5 minutes (no longer than 20 minutes). Stained samples were then vortexed for 5 seconds, after which cells were counted and percent cell viability determined via manual analysis using the ViaCount software module. For each sample, 1000 events were acquired with dilution factors that were determined based upon optimum machine performance (approximately 50-200 cells/μL).
To determine the efficacy of cellular uptake, NIH/3T3 and HeLa cells were labeled with increasing concentrations of DNA-Gd(III)-AuNPs or DOTA-Gd(III) for different amounts of time. Following agent incubation, cells were rinsed with DPBS, counted and then percent viability was assessed via flow cytometry. Gd(III) and Au content were determined via ICP-MS of acid digested samples. […] At all concentrations the Gd(III) uptake was >50-fold higher for DNA-Gd(III)-AuNPs than DOTA-Gd(III). […]

Where “and” joins values, the source holds several entries; their conditions need not be identical. Equal values may be shown once. Read-outs that look alike come from different tables or passages of the source.

For the molecule `O=C([O-])CN1CCN(CC(=O)[O-])CCN(CC(=O)O)CCN(CC(=O)[O-])CC1.[Gd+3]` [DOTA-Gd(III)], the “T1 reduction of labeled cell pellets” value in the data set with NIH/3T3 cells (5.0 μM Gd(III) incubation) and in the data set with NIH/3T3 cells (20 μM Gd(III) incubation) was “no significant difference from control cell pellets” in each case. Also, the “r1 60 MHz (1.41T)” value was 3.2^c mM^−1s^−1 in data set [1] and 3.2 mM⁻¹ s⁻¹ in data set [1] (listed as unconjugated Gd(III) complex). The “reduction in T1, solution phantoms” value in data set [2] (14.1T, 25° C., 60 μM Gd(III), complete cell media) came to 31%. Also, in data set [2] (per Gd(III) (ionic), image-based, cell media at 25° C.), the “r1 600 MHz (14.1T)” value is 2.1 mM⁻¹ s⁻¹ and 2.2 mM⁻¹ s⁻¹. Further, the “cell toxicity or cell number variation” value with NIH/3T3 and HeLa cells was “no evidence of cell toxicity or cell number variation”.

Values taken from patent US20120269730A1, “Intracellular Delivery of Contrast Agents with Functionalized Nanoparticles” (Northwestern University, priority 2009, published 2012).
